Assay results from ChEMBL document CHEMBL4837236, “Polyketides with Anti-neuroinflammatory Activity from Theissenia cinerea” (J Nat Prod, 2021).
pIC50: −log10 of the molar value.

Experiments:
[1] = tested on: BV-2; assay: Cytotoxicity against mouse BV2 cells assessed as cell viability at 10 uM after 24 hrs by MTT assay; assay type: cell-based; conditions: bv-2, 24 h
[2] = tested on: BV-2; assay: Antiinflammatory activity in mouse BV2 cells assessed as inhibition of LPS-induced NO-production by measuring NO level at 10 uM preincubated for 1 hr followed by LPS stimulation and measured after 24 hrs by microplate reader based colorimetric assay (reference value: 26.6 +/- 8.1 uM); assay type: functional
[3] = tested on: BV-2; assay: Antiinflammatory activity in mouse BV2 cells assessed as inhibition of LPS-induced NO-production preincubated for 1 hr followed by LPS stimulation and measured after 24 hrs by microplate reader based colorimetric assay; assay type: functional, cell-based; conditions: for inhibition: time 25.0 hrs

`COc1cc(O)c2c(c1)[C@H](O)[C@]13CO[C@H](O)[C@]1(O3)C2=O` was tested. Which Activity [1] did it give?
Its Activity is “Non-Toxic”.

What about the NO level [2] of the same molecule?
The NO level was 2.6 µM.

And the pIC50 [3]?
Its pIC50 is 5.49.

And the inhibition [3]?
The inhibition was “Dose-Dependent Effect”.

For `C/C=C/[C@@H]1O[C@H]2C(=C[C@H]1O)C(=O)O[C@@H]2C`, which Activity [1] is on record?
The Activity was “Non-Toxic”.

What about the NO level [2] of the same molecule?
Its NO level is 1.9 µM.

What about the pIC50 [3] of the same molecule?
The pIC50 was 5.96.

With `CC(O)C/C=C/[C@H](O)[C@H](O)/C=C/c1cccc(O)c1CO` (some centres undefined) as the molecule, how does the Activity [1] read?
The Activity was “Non-Toxic”.

And the NO level [2]?
Its NO level is 26.6 µM.

What does the source list for `CCC/C=C/C1=C(CO)[C@@H](O)[C@@H]2O[C@@H]2[C@@H]1O`?
Activity [1]: Non-Toxic; NO level [2]: 24.3 µM

How did the Activity [1] turn out when `C/C=C/[C@H]1O[C@@H]2C(=C[C@H]1O)C(=O)O[C@@H]2C` was run?
The Activity was “Non-Toxic”.

And the NO level [2]?
Its NO level is 2.2 µM.

What about the pIC50 [3] of the same molecule?
Its pIC50 is 5.35.

How did the Activity [1] turn out when `C[C@@H]1OC(=O)c2c(O)ccc(O)c2[C@@H]1O` was run?
Its Activity is “Non-Toxic”.

And the NO level [2]?
Its NO level is 28.9 µM.

Which NO level [2] does the source give for `COc1cc(/C=C/C(=O)CC(=O)/C=C/c2ccc(O)c(OC)c2)ccc1O` [CURCUMIN] here?
Its NO level is 5.5 µM.

And the pIC50 [3]?
The pIC50 was 5.52.

How did the Activity [1] turn out when `C/C=C/[C@@H]1O[C@@H]2[C@@H](C)OC(=O)[C@]2(O)C[C@H]1O` was run?
The Activity was “Non-Toxic”.

What about the NO level [2] of the same molecule?
The NO level was 25.5 µM.

Which results are given for `COc1cc(O)c2c(c1)[C@H](O)[C@@]1(CO)O[C@@]1(CO)C2=O`?
Activity [1]: Non-Toxic; NO level [2]: 10.5 µM; pIC50 [3]: 5.30; inhibition [3]: Dose-Dependent Effect
